Values joined by “and” are separate entries in the source; they are usually repeats but may differ in a detail not shown here. Equal entries are not always repeated. Numbers after ± are expanded uncertainties.
Experiments:
[1] = for vapor or sublimation pressure: Closed cell (Static) method; for Normal melting temperature: DTA
[2] = Molar enthalpy of transition or fusion; conditions: Crystal; DSC

COC(=O)c1ccc(Br)cc1 [methyl 4-bromobenzoate]
[1]
Conditions	vapor or sublimation pressure [kPa]
293.31 K, Crystal	0.00042 ± 0.0001
295.32 K, Crystal	0.00054 ± 0.0001
297.3 K, Crystal	0.00068 ± 0.00011
299.26 K, Crystal	0.00087 ± 0.00011
301.24 K, Crystal	0.00109 ± 0.00011
303.23 K, Crystal	0.00139 ± 0.00012
305.21 K, Crystal	0.00173 ± 0.00012
307.22 K, Crystal	0.0022 ± 0.00014
309.17 K, Crystal	0.00277 ± 0.00015
311.2 K, Crystal	0.00345 ± 0.00017
313.13 K, Crystal	0.00422 ± 0.0002
315.14 K, Crystal	0.00523 ± 0.00023
317.13 K, Crystal	0.00651 ± 0.00028
319.04 K, Crystal	0.00797 ± 0.00033
321.09 K, Crystal	0.00985 ± 0.0004
323.08 K, Crystal	0.0121 ± 0.00049
325.13 K, Crystal	0.01501 ± 0.00055
327 K, Crystal	0.01789 ± 0.00059
329.05 K, Crystal	0.02213 ± 0.00066
331.03 K, Crystal	0.02686 ± 0.00073
333 K, Crystal	0.0324 ± 0.00081
335.03 K, Crystal	0.03924 ± 0.00092
336.96 K, Crystal	0.04713 ± 0.001
338.94 K, Crystal	0.05664 ± 0.0012
340.91 K, Crystal	0.0673 ± 0.0014
342.9 K, Crystal	0.0811 ± 0.0016
344.79 K, Crystal	0.09642 ± 0.0018
346.85 K, Crystal	0.1156 ± 0.0021
348.81 K, Crystal	0.1363 ± 0.0021
354.73 K, Liquid	0.2096 ± 0.0027
356.68 K, Liquid	0.233 ± 0.0029
358.69 K, Liquid	0.259 ± 0.0032
360.68 K, Liquid	0.2932 ± 0.0034
362.63 K, Liquid	0.3282 ± 0.0037
364.63 K, Liquid	0.365 ± 0.0041
366.59 K, Liquid	0.4053 ± 0.0044
368.56 K, Liquid	0.4511 ± 0.0048
370.53 K, Liquid	0.5029 ± 0.0053
372.52 K, Liquid	0.5539 ± 0.0057
374.48 K, Liquid	0.6187 ± 0.0062
376.42 K, Liquid	0.6825 ± 0.0068
378.43 K, Liquid	0.752 ± 0.0074

Conditions	Normal melting temperature [°C]
[1], Crystal	78.07 ± 0.42

Conditions	Molar enthalpy of transition or fusion [kcal/mol]
[2]	6.17 ± 0.167

COC(=O)c1ccc(Cl)cc1 [methyl 4-chlorobenzoate]
[1]
Conditions	vapor or sublimation pressure [kPa]
276.44 K, Crystal	0.00043 ± 0.0001
278.37 K, Crystal	0.00055 ± 0.0001
280.36 K, Crystal	0.00071 ± 0.0001
282.35 K, Crystal	0.00092 ± 0.0001
284.34 K, Crystal	0.00118 ± 0.00011
285.3 K, Liquid	0.00301 ± 0.00015
286.32 K, Crystal	0.00148 ± 0.00011
287.31 K, Liquid	0.00363 ± 0.00017
288.29 K, Crystal	0.00191 ± 0.00012
289.27 K, Liquid	0.00436 ± 0.0002
290.31 K, Crystal	0.00242 ± 0.00014
291.28 K, Liquid	0.0052 ± 0.00023
292.3 K, Crystal	0.00308 ± 0.00016
293.26 K, Liquid	0.00618 ± 0.00026
294.26 K, Crystal	0.00389 ± 0.00018
295.27 K, Liquid	0.00739 ± 0.00031
296.29 K, Crystal	0.00489 ± 0.00022
297.26 K, Liquid	0.00872 ± 0.00036
298.24 K, Crystal	0.00611 ± 0.00026
299.23 K, Liquid	0.01031 ± 0.00042
300.23 K, Crystal	0.00765 ± 0.00032
301.21 K, Liquid	0.01212 ± 0.00048
302.21 K, Crystal	0.00956 ± 0.00039
303.18 K, Liquid	0.01428 ± 0.00053
304.18 K, Crystal	0.01181 ± 0.00047
305.19 K, Liquid	0.01678 ± 0.00057
306.12 K, Crystal	0.01452 ± 0.00054
307.17 K, Liquid	0.01959 ± 0.00061
308.18 K, Crystal	0.01815 ± 0.00059
309.12 K, Liquid	0.02291 ± 0.00067
310.15 K, Crystal	0.0222 ± 0.00066
311.13 K, Liquid	0.02675 ± 0.00073
312.09 K, Crystal	0.02704 ± 0.00073
313.12 K, Liquid	0.0311 ± 0.00079
314.62 K, Liquid	0.03483 ± 0.00085
316.12 K, Liquid	0.03877 ± 0.00091
318.07 K, Liquid	0.0448 ± 0.001
318.88 K, Liquid	0.04755 ± 0.001
321.14 K, Liquid	0.05585 ± 0.0012
322.9 K, Liquid	0.06343 ± 0.0013
324.86 K, Liquid	0.07327 ± 0.0014
327.05 K, Liquid	0.084 ± 0.0016
329.03 K, Liquid	0.0959 ± 0.0018
331 K, Liquid	0.1092 ± 0.002
332.98 K, Liquid	0.125 ± 0.0022
333.97 K, Liquid	0.1325 ± 0.002

Conditions	Normal melting temperature [°C]
[1], Crystal	41.98 ± 0.44

Conditions	Molar enthalpy of transition or fusion [kcal/mol]
[2]	5.09 ± 0.143

COC(=O)c1ccc(I)cc1 [methyl p-iodobenzoate]
[1]
Conditions	vapor or sublimation pressure [kPa]
313.11 K, Crystal	0.00044 ± 0.00011
315.03 K, Crystal	0.00054 ± 0.00011
317.12 K, Crystal	0.00069 ± 0.00011
319.05 K, Crystal	0.00087 ± 0.00011
321.04 K, Crystal	0.00108 ± 0.00012
323.04 K, Crystal	0.00134 ± 0.00012
325 K, Crystal	0.00165 ± 0.00013
326.97 K, Crystal	0.00206 ± 0.00014
329 K, Crystal	0.00253 ± 0.00015
330.93 K, Crystal	0.00315 ± 0.00017
332.89 K, Crystal	0.00387 ± 0.00019
334.91 K, Crystal	0.00478 ± 0.00022
336.94 K, Crystal	0.00583 ± 0.00026
342.8 K, Crystal	0.01054 ± 0.00043
346.74 K, Crystal	0.01524 ± 0.00055
350.73 K, Crystal	0.02236 ± 0.00066
352.75 K, Crystal	0.02707 ± 0.00073
356.66 K, Crystal	0.03886 ± 0.00091
358.67 K, Crystal	0.04652 ± 0.001
360.6 K, Crystal	0.05489 ± 0.0012
362.63 K, Crystal	0.06557 ± 0.0013
364.61 K, Crystal	0.07801 ± 0.0015
366.58 K, Crystal	0.09145 ± 0.0017
368.45 K, Crystal	0.1085 ± 0.002
370.54 K, Crystal	0.127 ± 0.0023
372.47 K, Crystal	0.1479 ± 0.0022
374.46 K, Crystal	0.1734 ± 0.0024
376.44 K, Crystal	0.2047 ± 0.0027
378.41 K, Crystal	0.2394 ± 0.003
380.38 K, Crystal	0.2786 ± 0.0033
386.32 K, Liquid	0.4305 ± 0.0047
388.2 K, Liquid	0.4717 ± 0.005
390.26 K, Liquid	0.5231 ± 0.0054
391.24 K, Liquid	0.5484 ± 0.0057
392.21 K, Liquid	0.5758 ± 0.0059
394.18 K, Liquid	0.6343 ± 0.0064
396.15 K, Liquid	0.698 ± 0.0069
398.14 K, Liquid	0.7666 ± 0.0075
400.1 K, Liquid	0.8418 ± 0.0082
402.07 K, Liquid	0.9228 ± 0.0089
404.04 K, Liquid	1.011 ± 0.01
406.02 K, Liquid	1.106 ± 0.011

Conditions	Normal melting temperature [°C]
[1], Crystal	113.52 ± 0.39

Conditions	Molar enthalpy of transition or fusion [kcal/mol]
[2]	7.1 ± 0.191

COC(=O)c1ccc(F)cc1 [methyl p-fluorobenzoate]
[1], Liquid
Conditions	vapor or sublimation pressure
268.58 K	0.00431 ± 0.00028 kPa
270.54 K	0.00518 ± 0.0003 kPa
272.52 K	0.00628 ± 0.00034 kPa
274.49 K	0.00754 ± 0.00037 kPa
276.46 K	0.00902 ± 0.00041 kPa
278.44 K	0.01071 ± 0.00047 kPa
280.4 K	0.01279 ± 0.00053 kPa
281.87 K	0.01451 ± 0.00056 kPa
283.38 K	0.0165 ± 0.00059 kPa
285.35 K	0.0195 ± 0.00064 kPa
287.34 K	0.02314 ± 0.00069 kPa
289.34 K	0.02719 ± 0.00075 kPa
291.34 K	0.0319 ± 0.00082 kPa
293.24 K	0.03702 ± 0.00089 kPa
295.27 K	0.04353 ± 0.00099 kPa
297.28 K	0.05103 ± 0.0011 kPa
299.22 K	0.05905 ± 0.0012 kPa
301.21 K	0.06815 ± 0.0014 kPa
303.17 K	0.07895 ± 0.0015 kPa
305.16 K	0.09121 ± 0.0017 kPa and 0.09107 ± 0.0017 kPa
307.18 K	0.1051 ± 0.0019 kPa
309.2 K	0.1209 ± 0.0022 kPa
311.15 K	0.1388 ± 0.0021 kPa
313.16 K	0.1594 ± 0.0023 kPa
315.12 K	0.1817 ± 0.0025 kPa
317.15 K	0.208 ± 0.0027 kPa
319.07 K	0.2349 ± 0.0029 kPa
321.11 K	0.2685 ± 0.0032 kPa
323.09 K	0.3015 ± 0.0035 kPa
325.07 K	0.3433 ± 0.0039 kPa
327.04 K	0.3848 ± 0.0043 kPa
329.03 K	0.4342 ± 0.0047 kPa
331 K	0.4875 ± 0.0051 kPa
332.99 K	0.549 ± 0.0057 kPa
334.97 K	0.6142 ± 0.0062 kPa
336.95 K	0.6904 ± 0.0069 kPa
338.92 K	0.7681 ± 0.0076 kPa
340.9 K	0.8612 ± 0.0084 kPa and 0.8627 ± 0.0084 kPa
342.87 K	0.9546 ± 0.0092 kPa
344.85 K	1.061 ± 0.01 kPa

Conditions	Normal melting temperature [°C]
[1], Crystal	0.6 ± 0.39

Conditions	Molar enthalpy of transition or fusion [kcal/mol]
[2]	3.68 ± 0.12

From the NIST ThermoML archive (doi:10.1016/j.jct.2012.07.027)
